Laboratory results from patent US20020137929A1, “1 - (3-heterocyclylphenyl) isothiourea, -isourea, -guanidine and -amidine herbicidal agents” (Intellectual Property Department, BASF Aktiengesellschaft, priority 1998, published 2002).

Tests used:
[1] = test system: ECHORC (Watergrass (Calif.)); test: Preemergence weed control under flooded paddy conditions; type: in vivo, Echinochloa oryzoides; conditions: rated 3-4 weeks after treatment
In short: (§1)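 Herbicidal effect is scored visually on a 0-9 scale against an untreated control, three to four weeks after compounds are pipetted into the flood water (1.5 to 3 cm deep) over seeds planted in silt loam at 0.5 cm depth. Rates: about 0.0313 to 0.500 kg/ha.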

ECHCG (Barnyardgrass) = test: Preemergence herbicidal evaluation; type: in vivo, Echinochloa crus-galli; conditions: rated 4-5 weeks after treatment
In short: (§2)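 Visual 0-9 rating vs control (stand, vigor, malformation, size, chlorosis, overall appearance), scored 4-5 wk after spraying. Seeded soil cups were treated preemergence with compound in aqueous acetone, ~0.0156-0.500 kg/ha equivalent.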

[2] = test system: IPOHE (Morningglory, Ivyleaf); test: Postemergence herbicidal evaluation; type: in vivo, Ipomoea hederacea; conditions: postemergence
In short: (§3)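 Two-week seedlings sprayed postemergence at 40 psi; formulation: 1:1 acetone/water, 0.5% TWEEN 20; application ≈0.0156–0.500 kg/ha. Greenhouse grow-out, then 0–9 visual scoring at 4–5 weeks.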

[3] = test system: IPOHE (Morningglory, Ivyleaf); test: Preemergence herbicidal evaluation; type: in vivo, Ipomoea hederacea; conditions: rated 4-5 weeks after treatment
In short: as §2

[4] = test system: TRZAWR (Wheat, Winter, cv Riband); test: Postemergence herbicidal evaluation; type: in vivo, Triticum aestivum; conditions: postemergence
In short: as §3

SETVI (Foxtail, Green) [5] = test: Postemergence herbicidal evaluation; type: in vivo, Setaria viridis; conditions: postemergence
In short: as §3

ABUTH (Velvetleaf) = test: Preemergence herbicidal evaluation; type: in vivo, Abutilon theophrasti; conditions: rated 4-5 weeks after treatment
In short: as §2

GALAP (Galium) = test: Postemergence herbicidal evaluation; type: in vivo, Galium aparine; conditions: postemergence
In short: as §3

MOOVA (Monochoria) = test: Preemergence weed control under flooded paddy conditions; type: in vivo, Monochoria vaginalis; conditions: rated 3-4 weeks after treatment
In short: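 Seeds or propagules sown in top 0.5 cm of silt loam soil, flooded 1.5 to 3 cm above surface throughout. Compound in 50/50 v/v aqueous/acetone pipetted into flood water at about 0.0313 to 0.500 kg/ha. Visual 0-9 rating versus control after three to four weeks in greenhouse.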

CYPIR (Rice Flatsedge) = test: as above; type: in vivo, Cyperus iria; conditions: rated 3-4 weeks after treatment
In short: as §1

ZEAMX (Corn, Field) = test: Preemergence herbicidal evaluation; type: in vivo, Zea mays; conditions: rated 4-5 weeks after treatment
In short: as §2

SETVI (Foxtail, Green) [6] = test: Preemergence herbicidal evaluation; type: in vivo, Setaria viridis; conditions: rated 4-5 weeks after treatment
In short: as §2

`CCOC(=O)CN1C(=O)C(OC)SC1=Nc1cc(-n2c(=O)cc(C(F)(F)F)n(C)c2=O)c(F)cc1Cl` (stereo not shown) [Compound 160, Ethyl 2-{{2-chloro-5-[3,6-dihydro-3-methyl-2,6-dioxo-4-(trifluoromethyl)-1(2H)-pyrimidinyl]-4-fluorophenyl}imino}-5-methoxy-4-oxo-3-thiazolidineacetate] was tested, and the “herbicidal effect rating, ECHORC” value ([1]; 0.0313 kg/ha) was 0.0, the “herbicidal effect rating, ECHORC” value ([1]; 0.0625 kg/ha) was 0.0 and the “herbicidal effect rating, ECHORC” value ([1]; 0.1250 kg/ha) was 2.0. The “herbicidal effect rating, ECHORC” value ([1]; 0.2500 kg/ha) was 4.0, the “Preemergence herbicidal rating ECHCG” value (ECHCG (Barnyardgrass); 0.0156 kg/ha) was 0.0 and the “Preemergence herbicidal rating ECHCG” value (ECHCG (Barnyardgrass); 0.0313 kg/ha) was 0.0. The “Preemergence herbicidal rating ECHCG” value (ECHCG (Barnyardgrass); 0.0625 kg/ha) was 1.0, the “Preemergence herbicidal rating ECHCG” value (ECHCG (Barnyardgrass); 0.1250 kg/ha) was 2.0 and the “Preemergence herbicidal rating ECHCG” value (ECHCG (Barnyardgrass); 0.2500 kg/ha) was 9.0. The “Preemergence herbicidal rating ECHCG” value (ECHCG (Barnyardgrass); 0.5000 kg/ha) was 9.0, the “Herbicidal rating IPOHE” value ([2]; rate 0.0156 kg/ha) was 9.0 and the “Herbicidal rating IPOHE” value ([2]; rate 0.0313 kg/ha) was 9.0. The “Herbicidal rating IPOHE” value ([2]; rate 0.0625 kg/ha) was 9.0, the “Herbicidal rating IPOHE” value ([2]; rate 0.1250 kg/ha) was 9.0 and the “Preemergence herbicidal rating IPOHE” value ([3]; 0.0156 kg/ha) was 3.0. The “Preemergence herbicidal rating IPOHE” value ([3]; 0.0313 kg/ha) was 6.0, the “Preemergence herbicidal rating IPOHE” value ([3]; 0.0625 kg/ha) was 9.0 and the “Preemergence herbicidal rating IPOHE” value ([3]; 0.1250 kg/ha) was 9.0. The “Preemergence herbicidal rating IPOHE” value ([3]; 0.2500 kg/ha) was 8.0, the “Preemergence herbicidal rating IPOHE” value ([3]; 0.5000 kg/ha) was 9.0 and the “Herbicidal rating TRZAWR” value ([4]; rate 0.0156 kg/ha) was 3.0. For the same compound, the “Herbicidal rating TRZAWR” value ([4]; rate 0.0313 kg/ha) was 4.0, the “Herbicidal rating TRZAWR” value ([4]; rate 0.0625 kg/ha) was 5.0 and the “Herbicidal rating TRZAWR” value ([4]; rate 0.1250 kg/ha) was 6.0. The “Herbicidal rating SETVI” value (SETVI (Foxtail, Green) [5]; rate 0.0156 kg/ha) was 0.0, the “Herbicidal rating SETVI” value (SETVI (Foxtail, Green) [5]; rate 0.0313 kg/ha) was 6.0 and the “Herbicidal rating SETVI” value (SETVI (Foxtail, Green) [5]; rate 0.0625 kg/ha) was 9.0. For the same compound, the “Herbicidal rating SETVI” value (SETVI (Foxtail, Green) [5]; rate 0.1250 kg/ha) was 9.0, the “Preemergence herbicidal rating ABUTH” value (ABUTH (Velvetleaf); 0.0156 kg/ha) was 5.0 and the “Preemergence herbicidal rating ABUTH” value (ABUTH (Velvetleaf); 0.0313 kg/ha) was 9.0. The “Preemergence herbicidal rating ABUTH” value (ABUTH (Velvetleaf); 0.0625 kg/ha) was 9.0, the “Preemergence herbicidal rating ABUTH” value (ABUTH (Velvetleaf); 0.1250 kg/ha) was 9.0 and the “Preemergence herbicidal rating ABUTH” value (ABUTH (Velvetleaf); 0.2500 kg/ha) was 9.0. The “Preemergence herbicidal rating ABUTH” value (ABUTH (Velvetleaf); 0.5000 kg/ha) was 9.0, the “Herbicidal rating GALAP” value (GALAP (Galium); rate 0.0156 kg/ha) was 0.0 and the “Herbicidal rating GALAP” value (GALAP (Galium); rate 0.0313 kg/ha) was 0.0. The “Herbicidal rating GALAP” value (GALAP (Galium); rate 0.0625 kg/ha) was 2.0, the “Herbicidal rating GALAP” value (GALAP (Galium); rate 0.1250 kg/ha) was 4.0 and the “herbicidal effect rating, MOOVA” value (MOOVA (Monochoria); 0.0313 kg/ha) was 5.0. The “herbicidal effect rating, MOOVA” value (MOOVA (Monochoria); 0.0625 kg/ha) was 6.0, the “herbicidal effect rating, MOOVA” value (MOOVA (Monochoria); 0.1250 kg/ha) was 6.0 and the “herbicidal effect rating, MOOVA” value (MOOVA (Monochoria); 0.2500 kg/ha) was 7.0. The “herbicidal effect rating, CYPIR” value (CYPIR (Rice Flatsedge); 0.0313 kg/ha) was 0.0, the “herbicidal effect rating, CYPIR” value (CYPIR (Rice Flatsedge); 0.0625 kg/ha) was 3.0 and the “herbicidal effect rating, CYPIR” value (CYPIR (Rice Flatsedge); 0.1250 kg/ha) was 6.0. For the same compound, the “herbicidal effect rating, CYPIR” value (CYPIR (Rice Flatsedge); 0.2500 kg/ha) was 9.0, the “Preemergence herbicidal rating ZEAMX” value (ZEAMX (Corn, Field); 0.0156 kg/ha) was 0.0 and the “Preemergence herbicidal rating ZEAMX” value (ZEAMX (Corn, Field); 0.0313 kg/ha) was 0.0. For the same compound, the “Preemergence herbicidal rating ZEAMX” value (ZEAMX (Corn, Field); 0.0625 kg/ha) was 1.0, the “Preemergence herbicidal rating ZEAMX” value (ZEAMX (Corn, Field); 0.1250 kg/ha) was 2.0 and the “Preemergence herbicidal rating ZEAMX” value (ZEAMX (Corn, Field); 0.2500 kg/ha) was 5.0. The “Preemergence herbicidal rating ZEAMX” value (ZEAMX (Corn, Field); 0.5000 kg/ha) was 8.0, the “Preemergence herbicidal rating SETVI” value (SETVI (Foxtail, Green) [6]; 0.0156 kg/ha) was 0.0 and the “Preemergence herbicidal rating SETVI” value (SETVI (Foxtail, Green) [6]; 0.0313 kg/ha) was 1.0. The “Preemergence herbicidal rating SETVI” value (SETVI (Foxtail, Green) [6]; 0.0625 kg/ha) was 7.0, the “Preemergence herbicidal rating SETVI” value (SETVI (Foxtail, Green) [6]; 0.1250 kg/ha) was 7.0 and the “Preemergence herbicidal rating SETVI” value (SETVI (Foxtail, Green) [6]; 0.2500 kg/ha) was 7.0. The “Preemergence herbicidal rating SETVI” value (SETVI (Foxtail, Green) [6]; 0.5000 kg/ha) was 9.0.
